The values that follow come from ChEMBL document CHEMBL1201862, “PubChem BioAssay data set” (2004).

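How tested: cells in 96-well plates exposed to compound for 48 hours at five concentrations. Abbreviation: GI50, concentration required for 50% inhibition of growth.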 The source made the active and inactive calls. No stated cut-off is given here; in the data, active = GI50 up to about 1.1 µM and inactive = higher.

Some test systems named below: NCI-H460; IGROV-1; 786-0; LOX IMVI; OVCAR-4; UACC-257; A549; CCRF-CEM; NCI-H226; SK-MEL-2; EKVX; COLO 205; ACHN; HCT-15; U-251; KM-20L2; OVCAR-3; HOP-92; T47D; PC-3.
What all share (assay): DTP human tumour cell line panel, 48 h

For the compound `COc1ccc(-c2cc3ccccc3[nH]c2=O)cc1OC`, the GI50 with NCI-H460, with IGROV-1, in the test on 786-0, in the test on LOX IMVI, in the test with OVCAR-4 and with UACC-257 was > 100 µM (inactive) each time. Also, the GI50 in the test with A549, with CCRF-CEM, with NCI-H226, in the test on SK-MEL-2, in the test with EKVX and in the test with COLO 205 was > 100 µM (inactive) each time. Besides, the GI50 with ACHN was > 100 µM (inactive); with HCT-15 it was more than 100 µM; with U-251, 71.6 µM (inactive); in the test with KM-20L2, > 100 µM (inactive).

For the compound `CC1=CCC2(C#N)CCC1C2=O` (configuration not stated), the GI50 with NCI-H460, with IGROV-1, in the test with 786-0, in the test with LOX IMVI, with OVCAR-4 and with UACC-257 was > 100 µM (inactive) in each case. The GI50 in the test with A549, in the test on CCRF-CEM, in the test on NCI-H226, in the test with SK-MEL-2, in the test on EKVX and in the test with COLO 205 was > 100 µM (inactive) throughout. Also, the GI50 was > 100 µM (inactive) in the test with ACHN; more than 100 µM with HCT-15; > 100 µM (inactive) in the test on OVCAR-3; > 100 µM (inactive) in the test on U-251; > 100 µM (inactive) in the test on KM-20L2.

On to `COc1cc2c(cc1OC)[C@@H](Nc1ccc(F)cc1)C1COC(=O)[C@@H]1C2c1cc(OC)c(O)c(OC)c1` (some centres not stated), for which the concentration for 50% growth inhibition (GI50) in the test on NCI-H460 is < 0.0204 µM (active); with IGROV-1, 21.7 µM (inactive); with 786-0, 0.573 µM (active); in the test with LOX IMVI, 0.671 µM (active); in the test on OVCAR-4, 16.7 µM (inactive); in the test with UACC-257 it was 5.53 µM (inactive). Moreover, the GI50 is 0.0484 µM (active) in the test on A549; 0.14 µM (active) in the test on CCRF-CEM; 0.231 µM (active) in the test on NCI-H226; 5.42 µM (inactive) in the test on SK-MEL-2; > 38.2 µM (inactive) in the test with EKVX; 12.5 µM (inactive) with COLO 205. Further, the concentration for 50% growth inhibition (GI50) is 0.12 µM (active) with ACHN; 1.67 µM in the test with HCT-15; 23.4 µM (inactive) with OVCAR-3; 0.493 µM (active) in the test with U-251; 3.04 µM (inactive) in the test with KM-20L2.

As to `O=Cc1cc(O)c(O)c(O)c1-c1c(C=O)cc(O)c(O)c1O`, the GI50 with NCI-H460, in the test on IGROV-1, with 786-0, with LOX IMVI, in the test on OVCAR-4 and in the test on UACC-257 was > 100 µM (inactive) each time. Moreover, the GI50 is > 100 µM (inactive) in the test with A549; 85.7 µM (inactive) in the test on CCRF-CEM; > 100 µM (inactive) in the test with NCI-H226; > 100 µM (inactive) in the test on SK-MEL-2; > 100 µM (inactive) in the test on EKVX; > 100 µM (inactive) in the test on COLO 205. Further, the GI50 is > 100 µM (inactive) with ACHN; more than 100 µM in the test with HCT-15; > 100 µM (inactive) with OVCAR-3; > 100 µM (inactive) in the test on U-251; > 100 µM (inactive) with KM-20L2.

Take `CC/C(CC(=O)CCC(=O)Nc1c(C)cccc1C)=N\NC(=O)NN`: the GI50 in the test with NCI-H460, in the test with IGROV-1, in the test on 786-0, in the test with OVCAR-4, in the test with UACC-257 and in the test with A549 was > 100 µM (inactive) in each case. The GI50 in the test on CCRF-CEM, in the test with SK-MEL-2, in the test with HOP-92, in the test with EKVX, with COLO 205 and with ACHN was > 100 µM (inactive) in each case. Moreover, the 50% growth inhibitory concentration (GI50) with HCT-15 was more than 100 µM; in the test on OVCAR-3, > 100 µM (inactive); with U-251, > 100 µM (inactive); in the test with KM-20L2, > 100 µM (inactive).

Take `C=C(C)C12OC3(c4ccccc4)OC1C1C4OC4(CO)C(O)C4(O)C(=O)C(C)=CC4C1(O3)C(C)C2OC(=O)/C=C/C=C/c1ccccc1` (configuration not stated): the 50% growth inhibitory concentration (GI50) in the test with NCI-H460 is < 0.0005 µM (active); in the test on T47D, 1.51 µM (inactive); with IGROV-1, 0.537 µM (active); in the test on 786-0 it was 0.101 µM (active); in the test with LOX IMVI it was 0.0968 µM (active); with OVCAR-4 it was 0.173 µM (active). Besides, the 50% growth inhibitory concentration (GI50) in the test with UACC-257 is 0.453 µM (active); with A549, < 0.0005 µM (active); with CCRF-CEM, 0.128 µM (active); in the test with NCI-H226, 0.228 µM (active); in the test with SK-MEL-2, 0.337 µM (active); in the test with HOP-92, < 0.0005 µM (active). For the same compound, the GI50 is 0.188 µM (active) with EKVX; < 0.0005 µM (active) in the test on COLO 205; < 0.0005 µM (active) with ACHN; 0.258 µM in the test on HCT-15; 0.109 µM (active) with OVCAR-3; 0.111 µM (active) in the test with PC-3. For the same compound, the GI50 in the test with U-251 was 0.197 µM (active).

For the compound `COc1ccc2cc(CNCCCCCCCCNCc3ccc4cc(OC)ccc4c3)ccc2c1`, the GI50 with NCI-H460 is 2.07 µM (inactive); in the test with T47D it was 21.2 µM (inactive); in the test with IGROV-1 it was 5.21 µM (inactive); with 786-0 it was 5.36 µM (inactive); in the test on LOX IMVI, 3.94 µM (inactive); in the test with OVCAR-4, 6.34 µM (inactive). For the same compound, the GI50 in the test with UACC-257 was 6.76 µM (inactive); with A549, 13.5 µM (inactive); in the test with CCRF-CEM, 2.54 µM (inactive); in the test on NCI-H226, 14 µM (inactive); in the test with SK-MEL-2, 4.71 µM (inactive); with HOP-92, 5.32 µM (inactive). Moreover, the GI50 was 6.87 µM (inactive) in the test on EKVX; 2.48 µM (inactive) with COLO 205; 5.94 µM (inactive) in the test on ACHN; 2 µM with HCT-15; 6.61 µM (inactive) with OVCAR-3; 1.45 µM (inactive) in the test with PC-3. In the test on U-251, the GI50 was 3.66 µM (inactive).

For `C[N+](C)(C)CCCSc1nc2ccccc2[nH]1`, the GI50 with NCI-H460, in the test with T47D, in the test on IGROV-1, with 786-0, in the test with LOX IMVI and in the test with OVCAR-4 was > 100 µM (inactive) throughout. In addition, the GI50 is 30.1 µM (inactive) in the test with UACC-257; > 100 µM (inactive) in the test on A549; > 100 µM (inactive) with CCRF-CEM; > 100 µM (inactive) in the test with NCI-H226; > 100 µM (inactive) in the test on SK-MEL-2; > 100 µM (inactive) in the test on HOP-92. The GI50 in the test with EKVX is > 100 µM (inactive); with COLO 205, > 100 µM (inactive); in the test with ACHN, > 100 µM (inactive); in the test on HCT-15, more than 100 µM; in the test on OVCAR-3, > 100 µM (inactive); with PC-3, > 100 µM (inactive). Also, in the test with U-251, the GI50 is > 100 µM (inactive).

Take `CC(=O)c1ccc(Nc2c3c(nc4ccccc24)CCCC3)cc1`: the GI50 in the test with NCI-H460 is 17.5 µM (inactive); in the test on T47D it was 10.1 µM (inactive); in the test with IGROV-1 it was 3.79 µM (inactive); with 786-0, 25.7 µM (inactive); in the test with LOX IMVI, 10 µM (inactive); with OVCAR-4 it was 41.9 µM (inactive). The GI50 in the test on UACC-257 was 24.5 µM (inactive); in the test with A549, 19 µM (inactive); in the test with CCRF-CEM, 15.9 µM (inactive); in the test with NCI-H226, 14 µM (inactive); in the test with SK-MEL-2 it was 24 µM (inactive); in the test with HOP-92, 21.1 µM (inactive). For the same compound, the GI50 in the test with EKVX was 28 µM (inactive); in the test with COLO 205, 11.7 µM (inactive); with ACHN, 38.3 µM (inactive); with HCT-15, 13.7 µM; in the test on OVCAR-3, 11.5 µM (inactive); in the test with PC-3 it was 41.1 µM (inactive). Further, in the test on U-251, the GI50 was 19.1 µM (inactive).

`COc1cc(OC)c(OC)cc1/C=C/c1cnnc2ccccc12`: the GI50 in the test on NCI-H460 was > 10 µM (inactive); in the test with T47D, > 10 µM (inactive); with IGROV-1, > 10 µM (inactive); in the test on 786-0, > 10 µM (inactive); in the test with LOX IMVI it was 6.9 µM (inactive); in the test on OVCAR-4 it was > 10 µM (inactive). For the same compound, the GI50 in the test with UACC-257, in the test with A549, in the test on CCRF-CEM, in the test with NCI-H226, in the test with SK-MEL-2 and in the test on HOP-92 was > 10 µM (inactive) throughout. Moreover, the GI50 is > 10 µM (inactive) with EKVX; > 10 µM (inactive) with COLO 205; > 10 µM (inactive) in the test on ACHN; more than 10 µM in the test with HCT-15; > 10 µM (inactive) in the test on OVCAR-3; 4.33 µM (inactive) with PC-3. The GI50 in the test on U-251 was > 10 µM (inactive).

Turning to `O=c1ccc(=O)n(-c2ccccc2)[nH]1`, the GI50 with NCI-H460, in the test on T47D, with IGROV-1, in the test with 786-0, in the test with LOX IMVI and with OVCAR-4 was > 100 µM (inactive) each time. The GI50 with UACC-257, in the test on A549, in the test on CCRF-CEM, in the test on NCI-H226, in the test on SK-MEL-2 and with HOP-92 was > 100 µM (inactive) in each case. In addition, the GI50 is > 100 µM (inactive) in the test with EKVX; > 100 µM (inactive) with COLO 205; > 100 µM (inactive) in the test with ACHN; more than 100 µM in the test on HCT-15; > 100 µM (inactive) in the test on OVCAR-3; > 100 µM (inactive) in the test on PC-3. Further, the GI50 with U-251 is > 100 µM (inactive).

By GI50 is commonly meant the concentration giving 50% growth inhibition.
